Measurements as given in PMC6321014, “Effects of Toona sinensis Leaf Extract and Its Chemical Constituents on Xanthine Oxidase Activity and Serum Uric Acid Levels in Potassium Oxonate-Induced Hyperuricemic Rats” (Molecules, 2018).
Where “and” joins values, the source holds several entries; their conditions need not be identical. Identical values can stand only once. Entries after “also recorded” stand apart in the source; their conditions may differ. Like-named read-outs stand apart in the source and are kept apart here.

What was measured:
[1] = target: T1, xanthine oxidase (XO) enzyme (bovine milk) (Bos taurus, UniProt P80457); test: In vitro xanthine oxidase (XO) assay, uric acid formation at 295 nm with xanthine as substrate; type: biochemical; conditions: for Xanthine Oxidase Kinetic Mode: Lineweaver-Burk and Dixon plots; for inhibition at 100 µM: read-out: Xanthine Oxidase Inhibition %; for IC50: repeated three times
T1 construct: 20 µL of 0.2 unit XO enzyme (bovine milk) in buffer; from tissue; host or cells: bovine milk
T1 sequence (P80457 whole entry): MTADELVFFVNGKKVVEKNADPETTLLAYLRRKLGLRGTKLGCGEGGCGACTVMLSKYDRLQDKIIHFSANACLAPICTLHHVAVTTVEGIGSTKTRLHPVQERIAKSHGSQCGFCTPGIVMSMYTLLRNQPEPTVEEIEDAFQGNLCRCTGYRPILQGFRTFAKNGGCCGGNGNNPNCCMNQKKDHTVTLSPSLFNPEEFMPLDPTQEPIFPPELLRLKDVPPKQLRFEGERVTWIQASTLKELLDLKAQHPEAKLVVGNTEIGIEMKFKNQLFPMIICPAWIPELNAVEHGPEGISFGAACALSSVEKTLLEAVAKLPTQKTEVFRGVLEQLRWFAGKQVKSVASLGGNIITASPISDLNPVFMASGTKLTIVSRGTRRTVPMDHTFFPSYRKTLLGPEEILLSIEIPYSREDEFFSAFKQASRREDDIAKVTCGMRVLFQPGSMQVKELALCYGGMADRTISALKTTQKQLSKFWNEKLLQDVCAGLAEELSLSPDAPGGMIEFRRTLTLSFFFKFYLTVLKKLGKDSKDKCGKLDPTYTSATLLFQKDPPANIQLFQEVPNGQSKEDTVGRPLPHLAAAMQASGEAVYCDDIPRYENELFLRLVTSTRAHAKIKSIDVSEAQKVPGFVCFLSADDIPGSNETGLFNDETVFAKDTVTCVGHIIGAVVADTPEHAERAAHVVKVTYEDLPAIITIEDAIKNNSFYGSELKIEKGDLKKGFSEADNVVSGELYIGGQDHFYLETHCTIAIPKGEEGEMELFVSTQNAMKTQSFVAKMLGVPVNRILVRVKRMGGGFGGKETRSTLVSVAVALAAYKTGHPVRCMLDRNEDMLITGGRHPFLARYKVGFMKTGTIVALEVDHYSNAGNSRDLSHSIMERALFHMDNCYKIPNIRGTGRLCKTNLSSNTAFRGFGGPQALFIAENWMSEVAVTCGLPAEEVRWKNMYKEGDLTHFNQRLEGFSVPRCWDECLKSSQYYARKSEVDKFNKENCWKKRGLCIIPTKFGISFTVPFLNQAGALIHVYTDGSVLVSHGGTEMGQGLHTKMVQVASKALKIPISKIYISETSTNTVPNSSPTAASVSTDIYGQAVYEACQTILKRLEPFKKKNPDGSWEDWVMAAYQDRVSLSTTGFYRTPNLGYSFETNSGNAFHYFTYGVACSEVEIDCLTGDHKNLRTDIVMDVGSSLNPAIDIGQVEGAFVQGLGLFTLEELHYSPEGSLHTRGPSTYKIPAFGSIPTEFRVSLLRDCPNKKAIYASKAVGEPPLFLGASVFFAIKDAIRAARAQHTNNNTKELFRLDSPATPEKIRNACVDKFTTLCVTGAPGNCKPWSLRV
Description: We subsequently analyzed the type of inhibition using both Lineweaver–Burk (Figure 2C) and Dixon (Figure 2D) plots.
XO activity was assayed spectrophotometrically on a Spectra Max M2 microplate reader, using published experimental procedures, with slight modifications. First, 135 µL of 100 mM sodium pyrophosphate buffer (HCl, pH 7.5), 20 µL of 0.2 unit XO enzyme (bovine milk) in buffer, and 5 µL of sample (test extract or compound) in DMSO were mixed at 37 °C. The reaction was started by adding 40 µL of substrate (0.5 mM xanthine) in buffer to the mixture. The reaction mixture (200 µL) was incubated at 37 °C in a 300 µL well plate, and the UV absorbance was determined at 295 nm.

[2] = tested on: potassium oxonate-induced hyperuricemic rats; test: Serum uric acid levels in potassium oxonate (PO)-induced hyperuricemic rats; type: in vivo, rat (male Sprague-Dawley); conditions: for effect on serum uric acid levels (in words): 40 mg/kg, PO-induced hyperuricemic rats
Description: Male Sprague–Dawley rats (7 weeks old) were purchased from Orient Bio (Seongmam, Korea) and were housed at a temperature of 22 ± 1 °C with 50 ± 10% humidity under a 12 h light/dark cycle with free access to a laboratory diet and water. The experimental design was approved by the Committee on Animal Care of the Korea Institute of Oriental Medicine, and all experiments were performed in accordance with committee guidelines. The uricase inhibitor PO was administered to induce hyperuricemia. The rats were divided into the following five groups (n = 6/group): (1) Normal control group; […] (3) PO + 300 mg/kg TSE group; […] Blood samples were collected via cardiac puncture under anesthesia 2 h after oral treatment. Serum was obtained by centrifugation of blood at 3000× g for 10 min at 4 °C. The separated serum was stored at −80 °C until analysis. Serum uric acid levels were determined by an enzymatic-colorimetric method using a commercial assay kit (Biovision, Milpitas, CA, USA) according to the manufacturer’s protocol.

[3] = target: T1, xanthine oxidase (XO) enzyme (bovine milk); conditions: cited from earlier work; for XO inhibitory effect (in words): literature statement, ref 23 (Cos et al.)
[4] = isolated compounds and controls, read-out: Xanthine Oxidase IC50
[5] = sample concentration 100 µM for each compound

Oc1ncnc2[nH]ncc12 [Allopurinol, allopurinol, reference compound]
Xanthine Oxidase Kinetic Mode [1]: Competitive | inhibition at 100 µM [1]: > 98% | decrease in serum uric acid level ([2]; 10 mg/kg oral gavage, positive control, rats): 43.5%

C[C@@H]1O[C@@H](OC[C@H]2O[C@@H](Oc3c(-c4ccc(O)c(O)c4)oc4cc(O)cc(O)c4c3=O)[C@H](O)[C@@H](O)[C@@H]2O)[C@H](O)[C@H](O)[C@H]1O [Compound 1, quercetin-3-O-rutinoside]
IC50 [1, 4]: > 100 µM | inhibition at 100 µM [1, 5]: 42.9 ± 1.4%

O=c1c(O[C@@H]2O[C@H](CO)[C@@H](O)[C@H](O)[C@H]2O)c(-c2ccc(O)c(O)c2)oc2cc(O)cc(O)c12 [Compound 2, quercetin-3-O-β-D-glucopyranoside]
IC50 [1, 4]: > 100 µM | inhibition at 100 µM [1, 5]: 47.8 ± 1.1%

O=C(OC[C@H]1O[C@@H](OC(=O)c2cc(O)c(O)c(O)c2)[C@H](OC(=O)c2cc(O)c(O)c(O)c2)[C@@H](OC(=O)c2cc(O)c(O)c(O)c2)[C@@H]1OC(=O)c1cc(O)c(O)c(O)c1)c1cc(O)c(O)c(O)c1 [Compound 3, 1,2,3,4,6-penta-O-galloyl-β-D-glucopyranose]
Ki ([1]; Dixon plots, substrate 50, 100, 200 µM, read-out: Xanthine Oxidase Ki (inhibition constant)): 3.1 µM | Xanthine Oxidase Kinetic Mode [1]: noncompetitive inhibitor | reversibility of XO inhibition ([1]; compound 0-12.5 μM versus XO 0-0.2 unit/mL): reversible XO inhibitor | IC50 [1, 4]: 2.8 µM and 2.79 µM | inhibition at 100 µM [1, 5]: 96.4 ± 0.7% | reduction in serum uric acid levels compared to the PO group ([2]; 40 mg/kg oral gavage 1 h after PO, blood 2 h after treatment, rats): 20.7% | effect on serum uric acid levels (in words) [2]: significantly decreased serum uric acid levels; also recorded: lowered serum uric acid levels

CC1OC(Oc2c(-c3ccc(O)c(O)c3)oc3cc(O)cc(O)c3c2=O)C(O)C(O)C1O [Compound 4, quercetin-3-O-α-L-rhamnopyranoside]
IC50 ([1]; Xanthine Oxidase IC50, isolated compounds and controls): > 100 µM | inhibition at 100 µM [1]: 38.9 ± 1.9% | effect on serum uric acid levels (in words) [2]: no effect

O=c1[nH]c(=O)c2c[nH]nc2[nH]1 [Oxypurinol, oxypurinol, reference compound]
IC50 [1, 4]: 28.4 ± 0.5 µM | inhibition at 100 µM [1, 5]: 87.6 ± 0.9% | XO inhibitory activity compared to allopurinol (in words) ([3]; XO screening, ref 25 (Tamta et al.)): much lower inhibitory activity than allopurinol

O=c1c(O)c(-c2ccc(O)cc2)oc2cc(O)cc(O)c12 [kaempferol]
XO inhibitory effect (in words) [3]: strong XO inhibitory effects

O=c1c(O)c(-c2ccc(O)c(O)c2)oc2cc(O)cc(O)c12 [quercetin]
XO inhibitory effect (in words) [3]: strong XO inhibitory effects
